# From patent publication US7001905B2, “Substituted diarylamines as MEK inhibitors” (Warner-Lambert Company, priority 2000, dated 2006)
# pIC50: −log10 of the molar value.
# Target: T1, MEK (Homo sapiens, UniProt Q02750)
# T1 construct: no tag is given for the 2D mutant
# Assay: in vitro MEK assay
# Assay type: biochemical
# Conditions: not given
# Method: For evaluation of direct MEK activity, 10 μg GST-MEK, is incubated in the presence of absence of test compound with 5 μg of a glutathione S-transferase fusion protein containing p44MAP kinase with a lysine to alanine mutation at position 71 (GST-MAPK-KA). This mutation eliminates kinase activity of MAPK, so only kinase activity attributed to the added MEK remains. Incubations are 15 minutes at 30° C. in a final volume of 50 μL containing 50 mM Tris (pH 7.5), […], 2, μM EGTA, and 10 μM [γ-^32P]ATP. The reaction is stopped by addition of Laemmli SDS sample buffer. Phosphorylated GST-MAPK-KA is resolved by electrophoresis on a 10% polyacrylamide gel. Radioactivity incorporated into GST-MAPK-KA is determined by autoradiography, and subsequent scintillation counting of excised bands.
# Alternatively, an artificially activated MEK containing serine to glutamate mutations at positions 218 and 222 (GST-MEK-2E) is used. When these two sites are phosphorylated, MEK activity is increased. Phosphorylation of these sites can be mimicked by mutation of the serine residues to glutamate. For this assay, 5 μg GST-MEK-2E is incubated with 5 μg GST-MAPK-KA for 15 minutes at 30° C. in the same reaction buffer as described above. Reactions are terminated and analyzed as above.
# T1 sequence (Q02750 whole entry S218D/S222D, form open): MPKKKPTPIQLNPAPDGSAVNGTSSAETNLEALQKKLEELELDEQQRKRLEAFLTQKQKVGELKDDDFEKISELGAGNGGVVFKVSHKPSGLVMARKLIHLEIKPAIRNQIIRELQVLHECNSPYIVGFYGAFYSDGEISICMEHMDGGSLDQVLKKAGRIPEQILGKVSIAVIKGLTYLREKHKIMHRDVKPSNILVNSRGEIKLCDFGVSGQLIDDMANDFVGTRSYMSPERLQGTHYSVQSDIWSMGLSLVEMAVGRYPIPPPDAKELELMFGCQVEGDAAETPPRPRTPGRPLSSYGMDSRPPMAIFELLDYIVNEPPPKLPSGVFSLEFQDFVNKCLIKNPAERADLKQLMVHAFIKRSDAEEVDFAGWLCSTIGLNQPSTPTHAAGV
row,pIC50,Compound
1,5.77,"Cc1cc(I)ccc1Nc1c(C(=O)O)cc(C(=O)NCc2ccncc2)c(F)c1F [Example 80, 4,5-Difluoro-6-(4-iodo-2-methyl-phenylamino)-N-pyridin4-ylmethyl-isophthalamic acid]"
2,6.06,"Cc1cc(I)ccc1Nc1c(C(=O)O)cc(C(=O)N2CCC(O)C2)c(F)c1F (centres unmarked) [Example 77, 3,4-Difluoro-5-[1-(3-hydroxy-pyrrolidin-1-yl)-methanoyl]-2-(4-iodo-2-methyl-phenylamino)-benzoic acid]"
3,7.06,"Cc1cc(I)ccc1Nc1c(C(=O)O)cc(C(=O)N2CCSC2)c(F)c1F [Example 98, 3,4-Difluoro-2-(4-iodo-2-methyl-phenylamino)-5-(1-thiazolidin-3-yl-methanoyl)-benzoic acid]"
4,5.74,"Cc1cc(I)ccc1Nc1c(C(=O)O)cc(C(=O)N2CCC(O)CC2)c(F)c1F [Example 81, 3,4-Difluoro-5-[1-(4-hydroxy-piperidin-1-yl)-methanoyl]-2-(4-iodo-2-methyl-phenylamino)-benzoic acid]"
5,5.96,"Cc1cc(I)ccc1Nc1c(C(=O)O)cc(C(=O)Nc2ccc3cn[nH]c3c2)c(F)c1F [Example 86, 4,5-Difluoro-N-(1H-indazol-6-yl)-6-(4-iodo-2-methyl-phenylamino)-isophthalamic acid]"

# Same assay, conditions: @ 1 μM
row,Compound,in vitro MEK assay: % inhibition @ 1 μM
1,"Cc1cc(I)ccc1N1COC(=O)c2cc(C(=O)NCCc3c[nH]cn3)c(F)c(F)c21 [Example 50, 7,8-Difluoro-1-(4-iodo-2-methyl-phenyl)4-oxo-1,4-dihydro-2H-3,1-benzoxazine-6-carboxylic acid [2-(1H-imidazol4-yl)-ethyl]-amide]",44%
2,"Cc1cc(I)ccc1N1COC(=O)c2cc(C(=O)N3CCCC(CO)C3)c(F)c(F)c21 (centres unmarked) [Example 39, 7,8-Difluoro-6-(3-hydroxymethyl-piperidine-1-carbonyl)-1-(4-iodo-2-methyl-phenyl)-1,2-dihydro-3,1-benzoxazin-4-one]",71%
3,"Cc1cc(I)ccc1Nc1c(C(=O)O)cc(C(=O)NCCCN2CCCC2=O)c(F)c1F [Example 62, 4,5-Difluoro-6-(4-iodo-2-methyl-phenylamino)-N-[3-(2-oxo-pyrrolidin-1-yl)-propyl]-isophthalamic acid]",78%
4,"CCCCN(CCS)C(=O)c1cc(C(=O)O)c(Nc2ccc(I)cc2C)c(F)c1F [Example 68, N-Butyl-4,5-difluoro-6-(4-iodo-2-methyl-phenylamino)-N-(2-mercapto-ethyl)-isophthalamic acid]",24%
5,"Cc1cc(I)ccc1N1COC(=O)c2cc(C(=O)Nc3ccccc3CCO)c(F)c(F)c21 [Example 30, 7,8-Difluoro-1-(4-iodo-2-methyl-phenyl)-4-oxo-1,4-dihydro-2H-3,1-benzoxazine-6-carboxylic acid [2-(2-hydroxy-ethyl)-phenyl]-amide]",55%
6,"COC[C@@H]1CCCN1C(=O)c1cc2c(c(F)c1F)N(c1ccc(I)cc1C)COC2=O [Example 9, 7,8-Difluoro-1-(4-iodo-2-methyl-phenyl)-6-((S)-2-methoxymethyl-pyrrolidine-1-carbonyl)-1,2-dihydro-3,1-benzoxazin-4-one]",93%
7,"Cc1cc(I)ccc1Nc1c(C(=O)O)cc(C(=O)N2CCC(O)C2)c(F)c1F (centres unmarked) [Example 77, 3,4-Difluoro-5-[1-(3-hydroxy-pyrrolidin-1-yl)-methanoyl]-2-(4-iodo-2-methyl-phenylamino)-benzoic acid]",83%
8,"Cc1cc(I)ccc1Nc1c(C(=O)O)cc(C(=O)N2CCCCC2CO)c(F)c1F (centres unmarked) [Example 70, 3,4-Difluoro-5-[1-(2-hydroxymethyl-piperidin-1-yl)-methanoyl]-2-(4-iodo-2-methyl-phenylamino)-benzoic acid]",49%
9,"Cc1cc(I)ccc1N1COC(=O)c2cc(C(=O)NCCN3CCOCC3)c(F)c(F)c21 [Example 42, 7,8-Difluoro-1-(4-iodo-2-methyl-phenyl)-4-oxo-1,4-dihydro-2H-3,1-benzoxazine-6-carboxylic acid (2-morpholin-4yl-ethyl)-amide]",15%
10,"Cc1cc(I)ccc1N1COC(=O)c2cc(C(=O)N3CCCCC3CO)c(F)c(F)c21 (centres unmarked) [Example 33, 7,8-Difluoro-6-(2-hydroxymethyl-piperidine-1-carbonyl)-1-(4-iodo-2-methyl-phenyl)-1,2-dihydro-3,1-benzoxazin-4-one]",79%
11,"Cc1cc(I)ccc1N1COC(=O)c2cc(C(=O)Nc3cc[nH]n3)c(F)c(F)c21 [Example 36, 7,8-Difluoro-1-(4-iodo-2-methyl-phenyl)-4-oxo-1,4-dihydro-2H-3,1-benzoxazine-6-carboxylic acid (1H-pyrazol-3-yl)-amide]",60%
12,"Cc1cc(I)ccc1N1COC(=O)c2cc(C(=O)NCCN3CCCCC3)c(F)c(F)c21 [Example 10, 7,8-Difluoro-1-(4-iodo-2-methyl-phenyl)-4-oxo-1,4-dihydro-2H-3,1-benzoxazine-6-carboxylic acid (2-piperidin-1-yl-ethyl)-amide]",44%
13,"Cc1csc(NC(=O)c2cc3c(c(F)c2F)N(c2ccc(I)cc2C)COC3=O)n1 [Example 24, ,8-Difluoro-1-(4-iodo-2-methyl-phenyl)-4-oxo-1,4dihydro-2H-3,1-benzoxazine-6-carboxylic acid (4-methyl-thiazol-2-yl)-amide]",20%
14,"Cc1cc(I)ccc1N1COC(=O)c2cc(C(=O)N3CCC(CCO)CC3)c(F)c(F)c21 [Example 44, 7,8-Difluoro-6-[4-(2-hydroxy-ethyl)-piperidine-1-carbonyl]-1-(4-iodo-2-methyl-phenyl)-1,2-dihydro-3,1-benzoxazin-4-one]",69%
15,"Cc1cc(I)ccc1Nc1c(C(=O)O)cc(C(=O)N2CC[C@@H](O)C2)c(F)c1F [Example 61, 3,4-Difluoro-5-[1-((R)-3-hydroxy-pyrrolidin-1-yl)-methanoyl]-2-(4-iodo-2-methyl-phenylamino)-benzoic acid]",75%
16,"Cc1cc(I)ccc1N1COC(=O)c2cc(C(=O)N3CCOCC3)c(F)c(F)c21 [Example 51, 7,8-Difluoro-1-(4-iodo-2-methyl-phenyl)-6-(morpholine-4-carbonyl)-1,2-dihydro-3,1-benzoxazin-4-one]",72%
17,"Cc1cc(I)ccc1N1COC(=O)c2cc(C(=O)N3CCCCC3CCO)c(F)c(F)c21 (centres unmarked) [Example 32, 7,8-Difluoro-6-[2-(2-hydroxy-ethyl)-piperidine-1-carbonyl]-1-(4-iodo-2-methyl-phenyl)-1,2-dihydro-3,1-benzoxazin-4-one]",76%
18,"Cc1cc(I)ccc1N1COC(=O)c2cc(C(=O)N3CCC(O)CC3)c(F)c(F)c21 [Example 43, 7,8-Difluoro-6-(4-hydroxy-piperidine-1-carbonyl)1-(4-iodo-2-methyl-phenyl)-1,2-dihydro-3,1-benzoxazin-4-one]",52%
19,"COCC(C)NC(=O)c1cc2c(c(F)c1F)N(c1ccc(I)cc1C)COC2=O (centres unmarked) [Example 22, 7,8-Difluoro-1-(4-iodo-2-methyl-phenyl)-4-oxo-1,4-dihydro-2H-3,1-benzoxazine-6-carboxylic acid (2-methoxy-1-methyl-ethyl)-amide]",46%
20,"Cc1cc(I)ccc1N1COC(=O)c2cc(C(=O)N(CCO)CCO)c(F)c(F)c21 [Example 49, 7,8-Difluoro-1-(4-iodo-2-methyl-phenyl)-4-oxo-1,4-dihydro-2H-3,1-benzoxazine-6-carboxylic acid bis-(2-hydroxy-ethyl)-amide]",50%

# The remaining lines, values ahead:
row,in vitro MEK assay: % inhibition @ 1 μM,Compound
1,71%,"Cc1cc(I)ccc1Nc1c(C(=O)O)cc(C(=O)NCc2ccncc2)c(F)c1F [Example 80, 4,5-Difluoro-6-(4-iodo-2-methyl-phenylamino)-N-pyridin4-ylmethyl-isophthalamic acid]"
2,25%,Cc1cc(I)ccc1Nc1c(C(=O)O)cc(C(=O)NCCN2CCCCC2)c(F)c1F [Example 102]
3,86%,"Cc1cc(I)ccc1Nc1c(C(=O)O)cc(C(=O)N2CCSC2)c(F)c1F [Example 98, 3,4-Difluoro-2-(4-iodo-2-methyl-phenylamino)-5-(1-thiazolidin-3-yl-methanoyl)-benzoic acid]"
4,81%,"Cc1cc(I)ccc1Nc1c(C(=O)O)cc(C(=O)NCC2CCCO2)c(F)c1F (centres unmarked) [Example 97, 4,5-Difluoro-6-(4-iodo-2-methyl-phenylamino)-N-(tetrahydro-furan-2-ylmethyl)-isophthalamic acid]"
5,85%,"Cc1cc(I)ccc1Nc1c(C(=O)O)cc(C(=O)Nc2ccc(S(N)(=O)=O)cc2)c(F)c1F [Example 96, 4,5-Difluoro-6-(4-iodo-2-methyl-phenylamino)-N-(4-sulfamoyl-phenyl)-isophthalamic acid]"
6,89%,"Cc1cc(I)ccc1Nc1c(C(=O)O)cc(C(=O)N2CCOCC2)c(F)c1F [Example 89, 3,4-Difluoro-2-(4-iodo-2-methyl-1-phenylamino)-5-(1-morpholin-4-yl-methanoyl)-benzoic acid]"
7,75%,"Cc1cc(I)ccc1Nc1c(C(=O)O)cc(C(=O)N2CCCC(O)C2)c(F)c1F (centres unmarked) [Example 101, 3,4-Difluoro-5-[1-(3-hydroxy-piperidin-1-yl)-methanoyl]-2-(4-iodo-2-methyl-phenylamino)-benzoic acid]"
8,86%,"Cc1cc(I)ccc1Nc1c(C(=O)O)cc(C(=O)N2CCC(O)CC2)c(F)c1F [Example 81, 3,4-Difluoro-5-[1-(4-hydroxy-piperidin-1-yl)-methanoyl]-2-(4-iodo-2-methyl-phenylamino)-benzoic acid]"
9,33%,"Cc1cc(I)ccc1Nc1c(C(=O)O)cc(C(=O)N2CCC(N3CCCC3)CC2)c(F)c1F [Example 78, 3,4-Difluoro-2-(4-iodo-2-methyl-phenylamino)-5-[1-(4-pyrrolidin-1-yl-piperidin-1-yl)-methanoyl]-benzoic acid]"
10,77%,"Cc1cc(I)ccc1Nc1c(C(=O)O)cc(C(=O)Nc2ccc3cn[nH]c3c2)c(F)c1F [Example 86, 4,5-Difluoro-N-(1H-indazol-6-yl)-6-(4-iodo-2-methyl-phenylamino)-isophthalamic acid]"
